This passage reports EC50 results from patent US20240217990A1 (Gilead Sciences, Inc., priority 2021, published 2024).

For one assay, the target named is T1, TLR8 (Homo sapiens, UniProt Q9NR97).
T1 construct: Human peripheral blood mononuclear cells (PBMCs) consist of lymphocytes, monocytes and dendritic cells that express TLR7, TLR8 and TLR9; endogenous in cells; host or cells: cryopreserved human PBMCs from healthy donors
T1 sequence (Q9NR97 27-1041): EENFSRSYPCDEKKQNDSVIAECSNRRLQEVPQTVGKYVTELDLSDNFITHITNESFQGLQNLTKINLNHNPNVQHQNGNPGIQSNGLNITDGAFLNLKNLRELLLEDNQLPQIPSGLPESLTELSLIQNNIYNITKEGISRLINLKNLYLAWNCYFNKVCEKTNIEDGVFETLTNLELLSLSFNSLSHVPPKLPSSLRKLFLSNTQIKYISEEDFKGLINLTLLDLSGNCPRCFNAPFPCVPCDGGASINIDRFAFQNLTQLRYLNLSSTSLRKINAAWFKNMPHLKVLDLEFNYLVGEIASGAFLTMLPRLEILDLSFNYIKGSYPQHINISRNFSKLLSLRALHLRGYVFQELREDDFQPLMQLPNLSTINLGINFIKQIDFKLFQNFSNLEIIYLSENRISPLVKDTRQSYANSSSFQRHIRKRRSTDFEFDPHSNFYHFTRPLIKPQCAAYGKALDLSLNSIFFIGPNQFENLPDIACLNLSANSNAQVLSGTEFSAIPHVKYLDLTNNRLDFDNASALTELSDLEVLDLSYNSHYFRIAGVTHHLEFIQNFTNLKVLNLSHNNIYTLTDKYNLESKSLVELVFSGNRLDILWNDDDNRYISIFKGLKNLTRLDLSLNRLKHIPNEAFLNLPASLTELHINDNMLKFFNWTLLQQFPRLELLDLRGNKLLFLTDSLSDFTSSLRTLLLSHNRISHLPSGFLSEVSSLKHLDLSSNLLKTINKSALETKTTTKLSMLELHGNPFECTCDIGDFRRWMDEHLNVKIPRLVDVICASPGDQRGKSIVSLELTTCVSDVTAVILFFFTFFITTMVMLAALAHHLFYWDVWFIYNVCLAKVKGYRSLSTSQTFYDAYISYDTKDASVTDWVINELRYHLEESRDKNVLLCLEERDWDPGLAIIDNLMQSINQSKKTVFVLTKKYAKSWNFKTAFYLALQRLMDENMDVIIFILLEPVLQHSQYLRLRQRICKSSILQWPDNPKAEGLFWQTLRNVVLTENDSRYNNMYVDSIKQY
Put plainly: TLR8 human PBMC cell-based assay (antagonist, Compound A stimulated cytokine release). The following applies: human PBMCs; TLR8 agonist Compound A 800 nM, 6 hours; cytokines (TNFa and IL 12p40) in supernatant; read-out: TLR-8 EC50. Put shortly:
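Cryopreserved donor PBMCs (100,000/well, RPMI + 10% FBS) were preincubated 1 h with antagonist (10-point dose response, quadruplicate), then stimulated with Compound A (800 nM final) for 6 h at 37 °C. TNFa and IL-12p40 in supernatants were measured by electrochemiluminescence; sigmoidal fits gave EC50.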

The target in the next assay is T2, TLR7 (Homo sapiens, UniProt Q9NYK1).
T2 construct: Human peripheral blood mononuclear cells (PBMCs) consist of lymphocytes, monocytes and dendritic cells that express TLR7, TLR8 and TLR9; endogenous in cells; host or cells: cryopreserved human PBMCs from healthy donors
T2 sequence (Q9NYK1 27-1049): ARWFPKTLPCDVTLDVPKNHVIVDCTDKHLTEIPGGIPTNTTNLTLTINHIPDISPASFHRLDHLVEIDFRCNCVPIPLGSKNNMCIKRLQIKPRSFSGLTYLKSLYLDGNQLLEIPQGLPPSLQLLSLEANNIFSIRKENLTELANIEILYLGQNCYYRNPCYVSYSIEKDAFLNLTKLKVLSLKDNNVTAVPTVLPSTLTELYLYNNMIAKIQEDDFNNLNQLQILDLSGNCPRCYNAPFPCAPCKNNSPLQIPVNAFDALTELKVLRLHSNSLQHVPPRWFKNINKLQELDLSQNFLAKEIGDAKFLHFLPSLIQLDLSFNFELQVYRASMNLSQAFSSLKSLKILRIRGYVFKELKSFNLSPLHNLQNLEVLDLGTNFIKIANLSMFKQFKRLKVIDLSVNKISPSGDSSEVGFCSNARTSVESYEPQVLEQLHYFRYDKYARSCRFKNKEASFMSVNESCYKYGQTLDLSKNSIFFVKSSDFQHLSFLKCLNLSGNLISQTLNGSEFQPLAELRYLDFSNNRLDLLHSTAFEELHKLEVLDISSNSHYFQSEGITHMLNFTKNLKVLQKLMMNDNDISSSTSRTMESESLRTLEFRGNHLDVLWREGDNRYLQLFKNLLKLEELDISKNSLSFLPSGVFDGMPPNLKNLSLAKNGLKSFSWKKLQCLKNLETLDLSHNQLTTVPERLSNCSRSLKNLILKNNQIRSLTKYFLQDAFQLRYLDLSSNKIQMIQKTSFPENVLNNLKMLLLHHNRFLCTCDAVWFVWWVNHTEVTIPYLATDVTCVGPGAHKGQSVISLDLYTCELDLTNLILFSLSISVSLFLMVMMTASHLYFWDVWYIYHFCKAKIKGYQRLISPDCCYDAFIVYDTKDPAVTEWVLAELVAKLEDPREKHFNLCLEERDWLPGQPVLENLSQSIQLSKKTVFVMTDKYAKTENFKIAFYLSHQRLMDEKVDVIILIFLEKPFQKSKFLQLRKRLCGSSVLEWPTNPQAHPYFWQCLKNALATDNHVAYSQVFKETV
Put plainly: TLR7 human PBMC cell-based assay (antagonist, GS-986 stimulated cytokine release). Conditions: human PBMCs; TLR7 agonist GS-986 400 nM, 6 hours; cytokines (IL-6 and IFNα) in supernatant; read-out: TLR-7 EC50. Put shortly:
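Cryopreserved healthy-donor PBMCs (100,000/well, RPMI-1640 + 10% FBS) pre-incubated 1 h at 37 °C with antagonist (10-point dose response, quadruplicate), then stimulated 6 h with GS-986 at 400 nM final. Supernatant IL-6 and IFNα measured by electrochemiluminescence immunoassay; EC50 from sigmoidal fit.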

Turning to `Cc1cc(-c2[nH]c3cc(C(=O)N4CCC[C@H](N)[C@@H]4C)sc3c2C(C)C)cn2ncnc12` [Example 87], the figures for the EC50 on TLR8 and on TLR7 were 0.013 µM and 0.0005 µM, respectively.

For `Cc1cc(-c2[nH]c3cc(C(=O)N4CCC5CNCCC54)sc3c2C(C)C)cn2ncnc12` (stereo not drawn) [Example 88], the EC50 – broadly, the concentration that produces a half-maximal response – amounted to 0.0046 µM at TLR8 and 0.0005 µM on TLR7.

As to `Cc1cc(-c2[nH]c3cc(C(=O)N4CCC5CCNCC54)sc3c2C(C)C)cn2ncnc12` (stereo not drawn) [Example 89], the EC50 on TLR8 came to 0.0262 µM; on TLR7, 0.0025 µM.

As for `Cc1cc(-c2[nH]c3cc(C(=O)N4CCC5CCNC5C4)sc3c2C(C)C)cn2ncnc12` (stereo not drawn) [Example 90], the values for the EC50 on TLR8 and at TLR7 were 0.0099 µM and 0.001 µM, respectively.

In the case of `Cc1cc(-c2[nH]c3cc(C(=O)N4C[C@H](N)[C@@H]5CC[C@H]4C5)sc3c2C(C)C)cn2ncnc12` [Example 91], the EC50 was found to be 0.0123 µM at TLR8 and 0.003 µM on TLR7.

As to `Cc1cc(-c2[nH]c3cc(C(=O)N(C)C4CCNCC4(C)C)sc3c2C(C)C)cn2ncnc12` (stereo not drawn) [Example 92], the EC50 at TLR8 is 0.0231 µM; on TLR7, 0.0002 µM.

`Cc1cc(-c2[nH]c3cc(C(=O)N4CCC[C@@H]5NCC[C@@H]54)sc3c2C(C)C)cn2ncnc12` [Example 93]: the EC50 was 0.0198 µM on TLR8 and 0.0006 µM on TLR7.

In the case of `Cc1cc(-c2[nH]c3cc(C(=O)N(C)CCCN(C)C)sc3c2C(C)C)cn2ncnc12` [Example 94], the figures for the EC50 on TLR8 and at TLR7 were 0.0047 µM and 0.001 µM, respectively.

With `Cc1cc(-c2[nH]c3cc(C(=O)N(C)CCN4CCOCC4)sc3c2C(C)C)cn2ncnc12` [Example 95], the EC50 at TLR8 is 0.035 µM; at TLR7, 0.0452 µM.

Turning to `Cc1cc(-c2[nH]c3cc(C(=O)N4C[C@@H](N)CC[C@H]4C)sc3c2C(C)C)cn2ncnc12` [Example 96], the EC50 at TLR8 is 0.0258 µM; on TLR7, 0.0003 µM.

Turning to `Cc1cc(-c2[nH]c3cc(C(=O)N4CCC[C@H]4CN4CCCC4)sc3c2C(C)C)cn2ncnc12` [Example 97], the EC50 at TLR8 turned out to be 0.0326 µM; on TLR7, 0.0129 µM.

Consider `Cc1cc(-c2[nH]c3cc(C(=O)N(CCN(C)C)C4CCCC4)sc3c2C(C)C)cn2ncnc12` [Example 98], for which the EC50 at TLR8 worked out at 0.0175 µM; at TLR7 it was 0.0143 µM.

As to `Cc1cc(-c2[nH]c3cc(C(=O)N(C)CCN4CCCC4)sc3c2C(C)C)cn2ncnc12` [Example 99], the values for the 50% effective concentration (EC50) on TLR8 and on TLR7 were 0.0116 µM and 0.0041 µM, respectively.

For the compound `Cc1cc(-c2[nH]c3cc(C(=O)N(C)CCN(C)C4CC4)sc3c2C(C)C)cn2ncnc12` [Example 100], the results for the EC50 at TLR8 and at TLR7 were 0.0225 µM and 0.0096 µM, respectively.

For the compound `Cc1cc(-c2[nH]c3cc(C(=O)N4C[C@@H](N)CC[C@@H]4C)sc3c2C(C)C)cn2ncnc12` [Example 101], the EC50 on TLR8 turned out to be 0.0788 µM; at TLR7 it was 0.0022 µM.

Turning to `Cc1cc(-c2[nH]c3cc(C(=O)N4CCC[C@H]4CN(C)C)sc3c2C(C)C)cn2ncnc12` [Example 103], the 50% effective concentration (EC50) at TLR8 was 0.0213 µM; at TLR7, 0.0113 µM.

On to `Cc1cc(-c2[nH]c3cc(C(=O)N4CCC[C@@H]4CN(C)C)sc3c2C(C)C)cn2ncnc12` [Example 104], for which the EC50 on TLR8 came to 0.0106 µM; at TLR7, 0.0078 µM.

Take `Cc1cc(-c2[nH]c3cc(C(=O)N4CC[C@H](C)[C@H](N)C4)sc3c2C(C)C)cn2ncnc12` [Example 105]: the EC50 worked out at 0.0163 µM on TLR8 and 0.0046 µM on TLR7.

In the case of `Cc1cc(-c2[nH]c3cc(C(=O)N4CCCCC4CN(C)C)sc3c2C(C)C)cn2ncnc12` (stereo not drawn) [Example 107], the EC50 was 0.0128 µM on TLR8 and 0.0039 µM at TLR7.

`Cc1cc(-c2[nH]c3cc(C(=O)N4CCC[C@H]5NCC[C@H]54)sc3c2C(C)C)cn2ncnc12` [Example 108]: the figures for the EC50 on TLR8 and at TLR7 were 0.0028 µM and 0.0006 µM, respectively.

Regarding `Cc1cc(-c2[nH]c3cc(C(=O)N4CCCC5CNCC54)sc3c2C(C)C)cn2ncnc12` (stereo not drawn) [Example 109], the EC50 at TLR8 worked out at 0.0182 µM; on TLR7 it was 0.0014 µM.

In the case of `Cc1cc(-c2[nH]c3cc(C(=O)N4CCC[C@H]5NCCC[C@H]54)sc3c2C(C)C)cn2ncnc12` [Example 110], the EC50 on TLR8 was determined as 0.0008 µM; at TLR7 it was 0.0001 µM.

Consider `Cc1cc(-c2[nH]c3cc(C(=O)N4CCCC(CN)C4)sc3c2C(C)C)cn2ncnc12` (stereo not drawn) [Example 111], for which the EC50 on TLR8 turned out to be 0.0072 µM; at TLR7, 0.0015 µM.

On to `Cc1cc(-c2[nH]c3cc(C(=O)N4CCCC(CN(C)C)C4)sc3c2C(C)C)cn2ncnc12` (stereo not drawn) [Example 112], for which the EC50 on TLR8 was determined as 0.0064 µM; on TLR7, 0.0029 µM.

Take `Cc1cc(-c2[nH]c3cc(C(=O)N(C)CC4CCNCC4)sc3c2C(C)C)cn2ncnc12` [Example 113]: the EC50 on TLR8 turned out to be 0.0545 µM; on TLR7, 0.0037 µM.

In the case of `Cc1cc(-c2[nH]c3cc(C(=O)N4CC(N)C4)sc3c2C(C)C)cn2ncnc12` [Example 114], the concentration giving a half-maximal response (EC50) at TLR8 was found to be 0.0075 µM; at TLR7 it was 0.0127 µM.

In the case of `Cc1cc(-c2[nH]c3cc(C(=O)N(C)C4CNC4)sc3c2C(C)C)cn2ncnc12` [Example 115], the EC50 at TLR8 was 0.038 µM; on TLR7, 0.003 µM.

`Cc1cc(-c2[nH]c3cc(C(=O)N4CCNC[C@H]4c4ccccc4)sc3c2C(C)C)cn2ncnc12` [Example 116]: the concentration giving a half-maximal response (EC50) is 0.014 µM on TLR8 and 0.0162 µM on TLR7.

As to `Cc1cc(-c2[nH]c3cc(C(=O)N4CCNCC4c4ccc(C(F)(F)F)cc4)sc3c2C(C)C)cn2ncnc12` (stereo not drawn) [Example 117], the results for the EC50 at TLR8 and at TLR7 were 0.0478 µM and 0.209 µM, respectively.

Turning to `Cc1cc(-c2[nH]c3cc(C(=O)N4CCn5c(nnc5C(F)(F)F)C4)sc3c2C(C)C)cn2ncnc12` [Example 118], the values for the EC50 on TLR8 and on TLR7 were 0.0478 µM and 0.0189 µM, respectively.

With `Cc1cc(-c2[nH]c3cc(C(=O)N4CCN[C@@H](c5ccccc5)C4)sc3c2C(C)C)cn2ncnc12` [Example 119], the EC50 at TLR8 worked out at 0.0003 µM; at TLR7, 0.0424 µM.

In the case of `Cc1cc(-c2[nH]c3cc(C(=O)N4CCC5(CCNCC5)C4)sc3c2C(C)C)cn2ncnc12` [Example 120], the EC50 stood at 0.0194 µM at TLR8 and 0.013 µM on TLR7.

For `Cc1cc(-c2[nH]c3cc(C(=O)N4CCC5(CCNC5)CC4)sc3c2C(C)C)cn2ncnc12` [Example 121], the 50% effective concentration (EC50) on TLR8 came out at 0.009 µM; at TLR7 it was 0.0012 µM.
